In this test the test system is active lesions (interdigital dermatitis or hairy warts).

Structures are written as SMILES.

Take `O=S(=O)([O-])[O-].[Cu+2]` [copper sulfate]: the “lesions per week, average” value (50 gallons water + 25 lbs copper sulfate per 400 cows, once per day, 4 days per week, 1,600 cow dairy) worked out at 22 lesions per week. Moreover, under “same regimen, 8 week record”, the “lesions per week, high” value amounted to 36 and the “lesions per week, low” value was 13.
